Assay results reported in ChEMBL document CHEMBL1201862, “PubChem BioAssay data set” (2004).
Active and inactive are the calls of the source. How the calls were made is not given here.

How the values were obtained:
[1] = target: T1, High affinity choline transporter 1 (Homo sapiens, UniProt Q9GZV3); experiment: human choline transporter blockers, potency – cell-based, 5-point CRC, membrane potential dye, dose response (AID 504840); assay type: functional
T1 sequence (Q9GZV3 whole entry): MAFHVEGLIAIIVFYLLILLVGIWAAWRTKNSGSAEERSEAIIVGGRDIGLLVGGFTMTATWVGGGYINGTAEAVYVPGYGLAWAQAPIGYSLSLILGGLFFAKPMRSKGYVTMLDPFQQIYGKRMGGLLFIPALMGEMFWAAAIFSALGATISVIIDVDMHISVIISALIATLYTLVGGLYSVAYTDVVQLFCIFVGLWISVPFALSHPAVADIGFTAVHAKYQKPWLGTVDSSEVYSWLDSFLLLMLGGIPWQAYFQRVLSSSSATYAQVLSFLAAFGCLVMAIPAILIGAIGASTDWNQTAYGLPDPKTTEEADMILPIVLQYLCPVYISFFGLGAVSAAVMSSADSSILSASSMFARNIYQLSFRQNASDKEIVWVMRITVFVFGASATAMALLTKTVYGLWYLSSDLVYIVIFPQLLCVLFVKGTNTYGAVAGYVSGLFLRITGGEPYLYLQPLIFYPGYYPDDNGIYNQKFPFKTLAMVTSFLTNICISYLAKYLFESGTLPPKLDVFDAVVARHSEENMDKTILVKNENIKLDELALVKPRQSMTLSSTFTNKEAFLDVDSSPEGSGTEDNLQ

[2] = target: T1, High affinity choline transporter 1; experiment: human choline transporter blockers, potency – cell-based, 10-point CRC, membrane potential dye, dose response (AID 588401); assay type: functional;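 further: membrane potential dye fluorescence of choline-evoked depolarization via CHT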

Structure (SMILES): CCCCN(CCCC)CCCNC(=O)C12CN(Cc3ccccc3)CC1C(c1cccc([N+](=O)[O-])c1)=NO2 (configuration not stated)
- IC50 [1]: 2.46 µM (active)
- IC50 [2]: 1.19 µM (active)
